Read-outs that look alike come from different tables or passages of the source.
Experiments:
[1] = tested on: HeLa cervical adenocarcinoma; experiment: In vitro cell proliferation inhibition, HeLa; format: cell-based; conditions: Homo sapiens, read-out: HeLa IC50
Description: (§1) The ability of a test compound to inhibit unregulated in vitro cell proliferation may be determined by measuring incorporation of ^14C-labelled thymidine into newly synthesized DNA within cell lines derived from carcinomas originating from several tissues. Accordingly, the effect of a test compound on proliferation of cells with a variety of phenotypes may be determined.
(§2) Carcinoma cell lines used include the HeLa cervical adenocarcinoma from the American Type Culture Collection (ATCC Cat. #CCL2), SK-OV-3 ovarian carcinoma (ATCC Cat. #HTB-77), MCF-7 breast carcinoma (ATCC Cat. #HTB-22), BT474 breast carcinoma (ATCC Cat. #HTB-20), SKBR3 breast carcinoma (ATCC Cat. #HTB-30), A431 epidermoid carcinoma (ATCC Cat. #CRL-1555) and NCI-N87 gastric carcinoma (ATCC Cat. #CRL-5822).
(§3) The carcinoma cells are trypsinized and counted. The cells (3000-8000 count) are added to each well of a 96-well CytoStar tissue culture treated scintillating microplate (Amersham #RPNQ0160) in complete medium (100 μL) and the plate is then incubated in complete medium for 24 hrs at 37° C. in an inert atmosphere containing 5% CO2.
(§4) Test compound (1 μL) in 100% DMSO is added to the plate test-wells with DMSO only added to control-wells. The plate is incubated in complete medium for a second 24 hr period at 37° C. in an atmosphere containing 5% CO2.
(§5) An aliquot of a solution of Methyl ^14C-thymidine (56 mC/mmol) (NEN #NEC568 or Amersham #CFA532) and complete medium (20 μL to provide 0.2 μCi/well) is then added to each well and the plate is incubated for a third 24 hr period at 37° C. in an atmosphere containing 5% CO2.
(§6) The plate contents are then discarded, the plate is washed twice with PBS (200 μL) and then PBS (200 μL) is added to each well. The plate is sealed and the degree of methyl ^14C-thymidine incorporation is quantified on a Packard Top Count.
(§7) Cell proliferation of the Hela cell line was measured using the ATP-Lite method as described in the ATP Lite Kit (Perkin-Elmer Kit Number 6106941) or the C^14 method as described above. Cell proliferation of the other cell lines was measured using the C^14 method.
(§8) The term “NT” means that the compound indicated was not tested in a particular cell line. The lack of such testing is not intended to imply a belief that the compound is not otherwise active in a particular cell line or any other cell line not tested.

BT474 breast carcinoma = experiment: In vitro cell proliferation inhibition, BT474; format: cell-based; conditions: Homo sapiens, BT-474; BT474 cells, 14C-thymidine incorporation; read-out: IC50 BT474
Description: as §1, §2, §3, §4, §5, §6, §7, §8

SKBR3 breast carcinoma = experiment: In vitro cell proliferation inhibition, SKBR3; format: cell-based; conditions: Homo sapiens, SK-BR-3; SKBR3 cells, 14C-thymidine incorporation; read-out: IC50 SKBR3
Description: as §1, §2, §3, §4, §5, §6, §7, §8

[2] = tested on: A431 epidermoid carcinoma; experiment: In vitro cell proliferation inhibition, A431; format: cell-based; conditions: Homo sapiens, A-431; A431 cells, 14C-thymidine incorporation; read-out: IC50 A431
Description: as §1, §2, §3, §4, §5, §6, §7, §8

[3] = tested on: NCI-N87 gastric carcinoma; experiment: In vitro cell proliferation inhibition, NCI-N87; format: cell-based; conditions: Homo sapiens, NCI-N87; N87 cells, 14C-thymidine incorporation; read-out: IC50 N87
Description: as §1, §2, §3, §4, §5, §6, §7, §8

EGFR = biological target: T1, EGFR (Homo sapiens, UniProt P00533); experiment: EGFR Kinase Assay; format: biochemical; conditions: for inhibition at 2 µM: test concentration of 2 μM;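 for all read-outs here: recombinant GST-tagged EGFR expressed in Sf9 cells, phosphorylating biotinylated polyGluTyr with γ-33P ATP on Streptavidin Flashplates, 1 h at 30 °C, scintillation counting, inhibition relative to plate maximum and minimum signals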
T1 construct: The intracellular portion of EGFR started at nucleotide 2189 (corresponding to amino acid 667) and ended at the termination codon; made in house; host or cells: Sf9 insect cells (baculovirus)

HER-2 = biological target: T2, HER-2 (Homo sapiens, UniProt P04626); experiment: HER-2 Kinase Assay; format: biochemical; conditions: for IC50: read-out: HER2 IC50;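 for all read-outs here: HER2 kinase reaction read by scintillation counting, inhibition scaled between maximum and minimum signals set on each plate, IC50 from inhibition against log concentration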
T2 construct: purchased Proqinase (Freiburg, Germany)

[4] = HeLa cell line, ATP-Lite method or C14 thymidine method

T2 sequence (P04626 679-1255): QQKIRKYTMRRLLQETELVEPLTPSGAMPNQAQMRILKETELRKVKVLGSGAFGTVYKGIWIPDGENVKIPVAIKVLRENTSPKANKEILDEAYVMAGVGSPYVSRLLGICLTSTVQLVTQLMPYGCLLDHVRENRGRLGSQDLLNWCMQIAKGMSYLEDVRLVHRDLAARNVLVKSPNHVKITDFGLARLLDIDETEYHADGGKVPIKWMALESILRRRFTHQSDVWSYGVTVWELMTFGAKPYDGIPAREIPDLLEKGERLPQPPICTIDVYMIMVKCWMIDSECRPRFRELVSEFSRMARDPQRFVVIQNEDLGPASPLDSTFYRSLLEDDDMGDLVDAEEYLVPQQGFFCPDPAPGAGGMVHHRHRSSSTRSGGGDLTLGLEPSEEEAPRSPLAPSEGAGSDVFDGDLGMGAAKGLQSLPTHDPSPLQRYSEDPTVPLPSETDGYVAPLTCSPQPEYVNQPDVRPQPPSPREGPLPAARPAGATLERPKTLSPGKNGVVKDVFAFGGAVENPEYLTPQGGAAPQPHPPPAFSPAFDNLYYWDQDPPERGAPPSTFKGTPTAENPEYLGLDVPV
T1 sequence (P00533 669-1210 limits assumed): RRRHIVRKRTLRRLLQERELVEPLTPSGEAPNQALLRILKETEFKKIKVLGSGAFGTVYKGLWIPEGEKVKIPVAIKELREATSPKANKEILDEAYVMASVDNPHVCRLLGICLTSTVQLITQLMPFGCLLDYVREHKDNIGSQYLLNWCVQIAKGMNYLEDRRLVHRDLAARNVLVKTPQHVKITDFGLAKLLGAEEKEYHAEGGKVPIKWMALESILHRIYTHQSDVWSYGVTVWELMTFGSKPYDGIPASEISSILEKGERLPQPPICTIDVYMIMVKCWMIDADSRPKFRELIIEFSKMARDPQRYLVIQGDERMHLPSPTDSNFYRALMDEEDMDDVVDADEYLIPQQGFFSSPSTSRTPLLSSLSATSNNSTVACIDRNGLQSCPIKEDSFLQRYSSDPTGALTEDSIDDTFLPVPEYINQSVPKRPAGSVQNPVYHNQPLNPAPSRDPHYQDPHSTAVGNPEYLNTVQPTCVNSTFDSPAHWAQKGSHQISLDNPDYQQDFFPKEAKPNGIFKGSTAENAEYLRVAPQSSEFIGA

Row | SMILES | IC50 [1, 4] [µM] | IC50 (EGFR) [µM] | IC50 (HER-2) [µM] | further results
1 | Nc1ncnc(Nc2ccc3c(cnn3Cc3cccc(F)c3)c2)c1/C=N/OCc1ccccc1 [Cpd 46, (5E)-4-amino-6-[1-(3-fluoro-benzyl)-1H-indazol-5-ylamino]-pyrimidine-5-carbaldehyde O-benzyl-oxime] | 100 |  |  | IC50 (BT474 breast carcinoma): 0.1 µM; IC50 (SKBR3 breast carcinoma): 0.3 µM; IC50 [2]: 100 µM; IC50 [3]: 10 µM
2 | CCO/N=C/c1c(N)ncnc1Nc1ccc2c(cnn2Cc2ccc(F)cc2)c1 [Cpd 67, (5E)-4-amino-6-[1-(4-fluoro-benzyl)-1H-indazol-5-ylamino]-pyrimidine-5-carbaldehyde O-ethyl-oxime] |  | 0.1 | 0.2 | 
3 | Nc1ncnc(Nc2ccc3c(cnn3Cc3cccc(F)c3)c2)c1/C=N\OCCCO [Cpd 69, (5Z)-4-amino-6-[1-(3-fluoro-benzyl)-1H-indazol-5-ylamino]-pyrimidine-5-carbaldehyde O-(3-hydroxy-propyl)-oxime] |  | 0.01 | 0.004 | 
4 | COCCO/N=C/c1c(N)ncnc1Nc1ccc(OCc2ccccc2)c(Cl)c1 [Cpd 71, (5E)-4-amino-6-(4-benzyloxy-3-chloro-phenylamino)-pyrimidine-5-carbaldehyde O-(2-methoxy-ethyl)-oxime] |  | 0.01 | 0.05 | 
5 | Nc1ncnc(Nc2ccc(OCc3ccccc3)c(Cl)c2)c1/C=N/O [Cpd 77, (5E)-4-amino-6-(4-benzyloxy-3-chloro-phenylamino)-pyrimidine-5-carbaldehyde oxime] | 10 | 0.02 | 0.1 | 
6 | Nc1ncnc(Nc2ccc(OCc3cccc(F)c3)c(Cl)c2)c1/C=N/O [Cpd 79, (5E)-4-amino-6-[3-chloro-4-(3-fluoro-benzyloxy)-phenylamino]-pyrimidine-5-carbaldehyde oxime] | 100 | 0.008 | 0.01 | 
7 | CO/N=C/c1c(N)ncnc1Nc1ccc(Cl)cc1F [Cpd 80] | 100 | 0.3 |  | 
8 | CO/N=C\c1c(N)ncnc1Nc1ccc(Cl)cc1F [Cpd 81] | 10 |  |  | 
9 | CO/N=C/c1c(N)ncnc1Nc1ccc(Br)cc1F [Cpd 82] | 100 | 0.2 |  | 
10 | CO/N=C\c1c(N)ncnc1Nc1ccc(Br)cc1F [Cpd 83] | 3.6 |  |  | 
11 | Nc1ncnc(Nc2ccc3c(cnn3Cc3cccc(F)c3)c2)c1/C=N/O [Cpd 84, (5E)-4-amino-6-[1-(3-fluoro-benzyl)-1H-indazol-5-ylamino]-pyrimidine-5-carbaldehyde oxime] | 4.9 |  |  | 
12 | Nc1ncnc(Nc2ccc3c(cnn3Cc3cccc(F)c3)c2)c1/C=N/OCCCO [Cpd 85, (5E)-4-amino-6-[1-(3-fluoro-benzyl)-1H-indazol-5-ylamino]-pyrimidine-5-carbaldehyde O-(3-hydroxy-propyl)-oxime] |  | 0.02 | 0.02 | IC50 ([1]; HeLa): 15.6 µM
13 | CO/N=C/c1c(NOC)ncnc1Nc1ccc(Br)cc1F [Cpd 86] | 100 |  |  | 
14 | Nc1ncnc(Nc2ccc3c(ccn3Cc3cccc(F)c3)c2)c1/C=N/O [Cpd 88, (5E)-4-amino-6-[1-(3-fluoro-benzyl)-1H-indol-5-ylamino]-pyrimidine-5-carbaldehyde oxime] | 10.9 | 0.009 | 0.02 | 
15 | CO/N=C/c1c(N)ncnc1Nc1cc(O)c(Cl)cc1F [Cpd 89] | 10 |  |  | 
16 | CO/N=C\c1c(N)ncnc1Nc1cc(O)c(Cl)cc1F [Cpd 90] | 10 |  |  | 
17 | CO/N=C/c1c(N)ncnc1Nc1ccc(OCc2cc(F)cc(F)c2)c(Cl)c1 [Cpd 97, (5E)-4-amino-6-[3-chloro-4-(3,5-difluoro-benzyloxy)-phenylamino]-pyrimidine-5-carbaldehyde O-methyl-oxime] | 100 |  | 1 | 
18 | Nc1ncnc(Nc2ccc(OCc3cc(F)cc(F)c3)c(Cl)c2)c1/C=N/O [Cpd 98, (5E)-4-amino-6-[3-chloro-4-(3,5-difluoro-benzyloxy)-phenylamino]-pyrimidine-5-carbaldehyde oxime] | 100 | 0.02 | 0.1 | 

Row | SMILES | IC50 [1, 4] [µM] | IC50 (EGFR) [µM] | IC50 (HER-2) [µM] | further results
19 | C[C@H](Nc1ncnc(N)c1/C=N/O)c1ccccc1 [Cpd 100, (5E)-4-amino-6-[(1S)-1-phenyl-ethylamino]-pyrimidine-5-carbaldehyde oxime] | 10 | 0.02 |  | 
20 | C[C@H](Nc1ncnc(N)c1/C=N/OCCN1CCOCC1)c1ccccc1 [Cpd 103] | 10 |  |  | 
21 | CO/N=C/c1c(N)ncnc1Nc1ccc(NC(=O)c2ccccc2)cc1 [Cpd 104] | 10 |  |  | 
22 | Nc1ncnc(Nc2ccc(NC(=O)c3ccccc3)cc2)c1/C=N/O [Cpd 105] | 100 |  |  | 
23 | C[C@H](Nc1ncnc(N)c1/C=N/OCCN1CCCCC1)c1ccccc1 [Cpd 106] | 10 |  |  | 
24 | Nc1ncnc(Nc2ccc(NC(=O)c3ccccc3)cc2)c1/C=N/OCCN1CCOCC1 [Cpd 107] | 100 |  |  | 
25 | Nc1ncnc(Nc2ccc(F)c(Cl)c2)c1/C=N/OCCN1CCOCC1 [Cpd 108] | 10 | 0.2 | 1.1 | 
26 | Nc1ncnc(Nc2ccc(Oc3ccccc3)cc2)c1/C=N/OCCN1CCOCC1 [Cpd 109] | 100 |  |  | 
27 | CO/N=C/c1c(N)ncnc1Nc1cnc(NC(=O)c2ccccc2)nc1 [Cpd 110] | 33.1 |  |  | 
28 | Nc1ncnc(Nc2ccc(Oc3ccccc3)cc2)c1/C=N/O [Cpd 111, (5E)-4-amino-6-(4-phenoxy-phenylamino)-pyrimidine-5-carbaldehyde oxime] |  | 0.1 | 0.3 | 
29 | CON=Cc1c(N)ncnc1Nc1ccc(OC)cc1 [Cpd 120, 4-amino-6-(4-methoxy-phenylamino)-pyrimidine-5-carbaldehyde O-methyl-oxime] |  |  | 7.92 | inhibition at 2 µM (EGFR): 15%
30 | CON=Cc1c(N)ncnc1NCc1ccc(OC)c(OC)c1 [Cpd 122, 4-amino-6-(3,4-dimethoxy-benzylamino)-pyrimidine-5-carbaldehyde O-methyl-oxime] |  |  | > 100 | inhibition at 2 µM (EGFR): 6%
31 | CON=Cc1c(N)ncnc1NCc1ccc(Oc2ccccc2)cc1 [Cpd 123, 4-amino-6-(4-phenoxy-benzylamino)-pyrimidine-5-carbaldehyde O-methyl-oxime] |  |  | > 100 | inhibition at 2 µM (EGFR): 7%
32 | CON=Cc1c(N)ncnc1NC1CCc2ccccc21 (stereo not drawn) [Cpd 124, 4-amino-6-(indan-1-ylamino)-pyrimidine-5-carbaldehyde O-methyl-oxime] |  |  | 2.46 | inhibition at 2 µM (EGFR): 26%
33 | CON=Cc1c(N)ncnc1NC1CCCc2ccccc21 (stereo not drawn) [Cpd 125, 4-amino-6-(1,2,3,4-tetrahydro-naphthalen-1-ylamino)-pyrimidine-5-carbaldehyde O-methyl-oxime] |  |  |  | inhibition at 2 µM (EGFR): 42%; inhibition at 1 µM (HER-2; test concentration of 1 μM, read-out: HER2 % inhibition): 25%
34 | CON=Cc1c(N)ncnc1Nc1ccc(Oc2ccccc2)nc1 [Cpd 128, 4-amino-6-(6-phenoxy-pyridin-3-ylamino)-pyrimidine-5-carbaldehyde O-methyl-oxime] |  |  | 1.82 | inhibition at 2 µM (EGFR): 45%
35 | CON=Cc1c(N)ncnc1Nc1ccc(N2CCOCC2)nc1 [Cpd 129, 4-amino-6-(6-morpholin-4-yl-pyridin-3-ylamino)-pyrimidine-5-carbaldehyde O-methyl-oxime] |  |  | > 100 | inhibition at 2 µM (EGFR): 1%

— US8153791B2, “Substituted pyrimidinyl oxime kinase inhibitors” (Janssen Pharmaceutica N.V., priority 2005, dated 2012)
